Data: ChEMBL document CHEMBL1777796, “Synthesis and evaluation of carbaborane derivatives of indomethacin as cyclooxygenase inhibitors” (Bioorg Med Chem, 2011)

Experiments:
[1] = target: T1, Prostaglandin G/H synthase 2 (Mus musculus, UniProt Q05769); test: Inhibition of mouse COX2 assessed as conversion of [14C]-arachidonic acid to [14C]-prostaglandins preincubated for 17 mins by thin-layer chromatography analysis
T1 sequence (Q05769 whole entry): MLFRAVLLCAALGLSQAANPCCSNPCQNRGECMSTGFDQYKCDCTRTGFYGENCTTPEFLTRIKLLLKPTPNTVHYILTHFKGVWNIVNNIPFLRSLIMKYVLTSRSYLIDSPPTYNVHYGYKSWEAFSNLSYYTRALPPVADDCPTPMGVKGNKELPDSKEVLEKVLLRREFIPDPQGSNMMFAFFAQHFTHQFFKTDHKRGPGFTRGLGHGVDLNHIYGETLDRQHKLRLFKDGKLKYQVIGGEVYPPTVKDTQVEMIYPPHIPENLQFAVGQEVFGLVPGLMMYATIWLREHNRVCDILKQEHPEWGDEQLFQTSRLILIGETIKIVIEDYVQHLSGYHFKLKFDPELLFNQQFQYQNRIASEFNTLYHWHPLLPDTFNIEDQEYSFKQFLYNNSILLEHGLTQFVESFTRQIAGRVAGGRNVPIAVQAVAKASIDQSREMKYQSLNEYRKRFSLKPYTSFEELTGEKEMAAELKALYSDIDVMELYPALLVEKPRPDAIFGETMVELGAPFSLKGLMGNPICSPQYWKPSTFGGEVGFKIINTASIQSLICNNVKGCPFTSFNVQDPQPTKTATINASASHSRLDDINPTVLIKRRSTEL

[2] = target: T2, Prostaglandin G/H synthase 1 (Ovis aries, UniProt P05979); test: Inhibition of ovine COX1 assessed as conversion of [14C]-arachidonic acid to [14C]-prostaglandins preincubated for 17 mins by thin-layer chromatography analysis
T2 sequence (P05979 whole entry): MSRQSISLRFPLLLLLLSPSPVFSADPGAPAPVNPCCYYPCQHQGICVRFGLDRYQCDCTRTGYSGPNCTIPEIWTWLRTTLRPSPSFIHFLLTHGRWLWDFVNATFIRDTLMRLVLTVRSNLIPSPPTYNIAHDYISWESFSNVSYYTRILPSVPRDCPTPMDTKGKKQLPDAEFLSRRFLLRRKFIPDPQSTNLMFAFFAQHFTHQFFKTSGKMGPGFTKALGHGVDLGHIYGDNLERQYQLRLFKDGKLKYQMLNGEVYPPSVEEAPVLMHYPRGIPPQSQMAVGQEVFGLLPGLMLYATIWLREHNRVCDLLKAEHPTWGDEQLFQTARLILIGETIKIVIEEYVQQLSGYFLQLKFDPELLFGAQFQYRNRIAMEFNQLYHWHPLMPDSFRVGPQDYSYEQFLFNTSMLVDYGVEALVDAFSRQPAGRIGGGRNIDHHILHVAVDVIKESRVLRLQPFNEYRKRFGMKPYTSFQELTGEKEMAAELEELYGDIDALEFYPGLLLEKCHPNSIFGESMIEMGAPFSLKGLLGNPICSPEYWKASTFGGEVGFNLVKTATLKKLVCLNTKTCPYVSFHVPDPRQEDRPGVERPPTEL

IC50 [1]: > 25 µM
IC50 [2]: > 25 µM
SMILES: COc1ccc2c(c1)c(CC(=O)OC13CC4CC(CC(C4)C1)C3)c(C)n2C(=O)c1ccc(Cl)cc1
